Assays:
[1] = tested on: BAD KO SV40 MEF (BAD gene knockout immortalized mouse embryonic fibroblasts); assay: Alamar blue cytotoxicity assay, 72 h; format: cell-based; conditions: read-out: IC50 and 95% CI
[2] = tested on: WT SV40 MEF (wild-type immortalized mouse embryonic fibroblast); assay: Alamar blue cytotoxicity assay, 72 h; format: cell-based; conditions: read-out: IC50 and 95% CI
human topoisomerase IB = tested on: human topoisomerase IB; set-up: method as in PMID 26795676; conditions: ref [18], [19]; cited from earlier work
[3] = tested on: HL-60 (human promyelocytic leukemia); assay: Alamar blue cytotoxicity assay, 72 h; format: cell-based
Text: (§1) The cell lines HepG2 (human hepatocellular carcinoma), HL-60 (human promyelocytic leukemia), K-562 (human chronic myelogenous leukemia), B16-F10 (mouse melanoma), MCF-7 (human breast carcinoma), HCT116 (human colon carcinoma), HSC-3 (human oral squamous cell carcinoma), SCC-4 (human oral squamous cell carcinoma), MRC-5 (human lung fibroblast), WT SV40 MEF (wild-type immortalized mouse embryonic fibroblast), and BAD KO SV40 MEF (BAD gene knockout immortalized mouse embryonic fibroblasts) were obtained from the American Type Culture Collection (ATCC, Manassas, VA, USA). Cells were cultured in RPMI 1640 medium (Gibco-BRL, Gaithersburg, MD, USA) with 10% fetal bovine serum (Life, Carlsbad, CA, USA), 2 mM L-glutamine (Vetec Química Fina, Duque de Caxias, RJ, Brazil) and 50 μg/mL gentamycin (Life). For all experiments, adherent cells were collected by treatment with 0.25% trypsin-EDTA solution (Gibco-BRL). All cell lines were cultured in flasks at 37°C in 5% CO2 and were subcultured every 3–4 days to maintain exponential growth. All cell lines were tested for mycoplasma using a mycoplasma staining kit (Sigma-Aldrich Co.) to validate that the cells that were used were free from contamination.
(§2) Cytotoxicity was measured colorimetrically using an Alamar blue method that was performed as previously described ([20], [21]). Cells were seeded in 96-well plates for all experiments (7 × 10^4 cells/mL for adherent cells or 3 × 10^5 cells/mL for suspension cells in 100 μL of medium) and incubated overnight at 37°C with 5% CO2 to allow for adherence. The complexes were dissolved in 0.5% dimethyl sulfoxide (DMSO, Vetec Química Fina) at eight different concentrations from 0.19 to 25 μg/mL and were added to each well and incubated for 72 h. The negative control was treated with the vehicle (0.5% DMSO) that was used to solubilize and dilute the complexes. […] Four (for cell lines) or 24 h (for PBMCs) before the end of incubation, 20 μL of a stock solution (0.312 mg/mL) of resazurin (Sigma-Aldrich Co.) was added to each well. Absorbance was measured at 570 and 600 nm using a SpectraMax 190 Microplate Reader (Molecular Devices, Sunnyvale, CA, USA).

B16-F10 (mouse melanoma) = assay: Alamar blue cytotoxicity assay, 72 h; format: cell-based; conditions: for IC50: read-out: IC50 and 95% CI, B16-F10, 72 h
Text: as §1, §2

[4] = tested on: HCT116 (human colon carcinoma); assay: Alamar blue cytotoxicity assay, 72 h; format: cell-based; conditions: PBMCs vs HCT116
Text: as §1, §2

[5] = tested on: MCF-7 (human breast carcinoma); assay: Alamar blue cytotoxicity assay, 72 h; format: cell-based
Text: as §1, §2

[6] = tested on: HSC-3 (human oral squamous cell carcinoma); assay: Alamar blue cytotoxicity assay, 72 h; format: cell-based; conditions: PBMCs vs HSC-3
Text: as §1, §2

[7] = tested on: SCC-4 (human oral squamous cell carcinoma); assay: Alamar blue cytotoxicity assay, 72 h; format: cell-based
Text: as §1, §2

advanced HCC = tested on: advanced HCC; set-up: method as in PMID 18650514, PMID 28604110, PMID 29533189; conditions: ref [2]–[4]; cited from earlier work

N.N.[Cl][Pt][Cl] [cisplatin, reference compound]
IC50 [1]: 47.3 µM | IC50 [2]: 36.9 µM

F[P-](F)(F)(F)(F)F.O=C(O)c1ccc([S-])nc1.[Ru+2].c1ccc(-c2ccccn2)nc1.c1ccc(P(CCCCP(c2ccccc2)c2ccccc2)c2ccccc2)cc1 [Complex 4, [Ru(mpca)(bipy)(dppb)]PF6]
supercoiled DNA relaxation mediated by human topoisomerase IB (human topoisomerase IB): inhibit the supercoiled DNA relaxation | Selectivity index (SI = IC50 [noncancerous cells]/IC50 [cancer cells]) ([3]; PBMCs vs HL-60): 2.6 | IC50 ([3]; read-out: IC50 and 95% CI, HL-60, 72 h): 8.7 µM | Selectivity index (SI = IC50 [noncancerous cells]/IC50 [cancer cells]) (B16-F10 (mouse melanoma); PBMCs vs B16-F10): 1.3 | IC50 (B16-F10 (mouse melanoma)): 17.7 µM

F[P-](F)(F)(F)(F)F.Nc1cc(N)nc([S-])n1.[Ru+2].c1ccc(-c2ccccn2)nc1.c1ccc(P(CCCCP(c2ccccc2)c2ccccc2)c2ccccc2)cc1 [Complex 3, [Ru(dmp)(bipy)(dppb)]PF6]
supercoiled DNA relaxation mediated by human topoisomerase IB (human topoisomerase IB): inhibit the supercoiled DNA relaxation | Selectivity index (SI = IC50 [noncancerous cells]/IC50 [cancer cells]) [4]: 2.2 | Selectivity index (SI = IC50 [noncancerous cells]/IC50 [cancer cells]) ([5]; PBMCs vs MCF-7): 1.5 | IC50 ([5]; read-out: IC50 and 95% CI, MCF-7, 72 h): 8.7 µM | Selectivity index (SI = IC50 [noncancerous cells]/IC50 [cancer cells]) ([3]; MRC-5 vs HL-60): 1.1 | Selectivity index (SI = IC50 [noncancerous cells]/IC50 [cancer cells]) ([3]; PBMCs vs HL-60): 2.6 | IC50 (B16-F10 (mouse melanoma)): 3.9 µM | Selectivity index (SI = IC50 [noncancerous cells]/IC50 [cancer cells]) [6]: 2.5 | Selectivity index (SI = IC50 [noncancerous cells]/IC50 [cancer cells]) ([7]; MRC-5 vs SCC-4): 1.1

CNC(=O)c1cc(Oc2ccc(NC(=O)Nc3ccc(Cl)c(C(F)(F)F)c3)cc2)ccn1 [sorafenib]
prolongation of survival (advanced HCC): 3 months

O=C1[O][Pt]2([NH][C@@H]3CCCC[C@H]3[NH]2)[O]C1=O [oxaliplatin, reference compound]
IC50 ([7]; read-out: IC50 and 95% CI, SCC-4, 72 h): 7.7 µM
